Our source for the IC50 values is ChEMBL document CHEMBL4811262, “Parallel discovery of selective and dual inhibitors of tryptophan dioxygenases IDO1 and TDO2 with a newly-modified enzymatic assay” (Bioorg Med Chem, 2021).

For assay [1], the target named is T1, Indoleamine 2,3-dioxygenase 1 (Homo sapiens, UniProt P14902). Description: Inhibition of recombinant human IDO1 expressed in Escherichia coli EC538 assessed as reduction in N-formylkynurenine formation using L-tryptophan as substrate incubated for 30 mins by methylene blue reagent based concurrent assay.
The target of assay [2] is T2, Tryptophan 2,3-dioxygenase (Homo sapiens, UniProt P48775). Description: Inhibition of recombinant human TDO2 expressed in Escherichia coli BL21 (DE3) assessed as reduction in N-formylkynurenine formation using L-tryptophan as substrate incubated for 30 mins by methylene blue reagent based concurrent assay.
Assay [3] addresses Tryptophan 2,3-dioxygenase (Rattus norvegicus, UniProt P21643). Description: Inhibition of TDO2 in rat liver homogenate assessed as reduction in N-formylkynurenine formation using L-tryptophan as substrate incubated for 1 hr. The format is tissue-based.
Assay [4] concerns the target T1, Indoleamine 2,3-dioxygenase 1. Description: Inhibition of recombinant human IDO1 expressed in Escherichia coli EC538 assessed as reduction in N-formylkynurenine formation using L-tryptophan as substrate incubated for 30 mins by methylene blue reagent based assay.
The target in assay [5] is T2, Tryptophan 2,3-dioxygenase. Description: Inhibition of recombinant human TDO2 expressed in Escherichia coli BL21 (DE3) assessed as reduction in N-formylkynurenine formation using L-tryptophan as substrate incubated for 30 mins by methylene blue reagent based assay.

T2 sequence (P48775 whole entry): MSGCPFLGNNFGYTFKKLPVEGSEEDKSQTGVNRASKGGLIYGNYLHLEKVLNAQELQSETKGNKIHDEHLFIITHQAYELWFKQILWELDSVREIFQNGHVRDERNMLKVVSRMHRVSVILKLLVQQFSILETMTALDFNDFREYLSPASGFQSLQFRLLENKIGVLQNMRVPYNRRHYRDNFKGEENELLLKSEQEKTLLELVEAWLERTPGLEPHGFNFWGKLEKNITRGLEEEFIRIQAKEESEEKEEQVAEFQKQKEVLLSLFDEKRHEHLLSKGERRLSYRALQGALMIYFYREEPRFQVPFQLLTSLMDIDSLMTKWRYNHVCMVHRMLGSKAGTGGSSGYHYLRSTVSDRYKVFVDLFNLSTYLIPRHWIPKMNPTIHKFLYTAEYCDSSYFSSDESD
T1 sequence (P14902 whole entry): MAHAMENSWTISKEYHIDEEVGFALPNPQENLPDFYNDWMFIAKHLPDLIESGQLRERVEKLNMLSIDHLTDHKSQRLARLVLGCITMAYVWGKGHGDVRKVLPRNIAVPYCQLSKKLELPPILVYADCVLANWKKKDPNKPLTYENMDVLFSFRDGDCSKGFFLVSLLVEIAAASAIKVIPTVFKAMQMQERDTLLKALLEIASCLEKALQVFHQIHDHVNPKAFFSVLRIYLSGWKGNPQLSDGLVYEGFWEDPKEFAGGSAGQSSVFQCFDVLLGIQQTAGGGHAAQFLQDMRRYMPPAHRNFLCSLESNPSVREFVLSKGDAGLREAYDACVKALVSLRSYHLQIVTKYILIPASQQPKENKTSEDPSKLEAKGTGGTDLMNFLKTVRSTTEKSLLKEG
Sequence of Tryptophan 2,3-dioxygenase (Rattus norvegicus, UniProt P21643) (P21643 whole entry): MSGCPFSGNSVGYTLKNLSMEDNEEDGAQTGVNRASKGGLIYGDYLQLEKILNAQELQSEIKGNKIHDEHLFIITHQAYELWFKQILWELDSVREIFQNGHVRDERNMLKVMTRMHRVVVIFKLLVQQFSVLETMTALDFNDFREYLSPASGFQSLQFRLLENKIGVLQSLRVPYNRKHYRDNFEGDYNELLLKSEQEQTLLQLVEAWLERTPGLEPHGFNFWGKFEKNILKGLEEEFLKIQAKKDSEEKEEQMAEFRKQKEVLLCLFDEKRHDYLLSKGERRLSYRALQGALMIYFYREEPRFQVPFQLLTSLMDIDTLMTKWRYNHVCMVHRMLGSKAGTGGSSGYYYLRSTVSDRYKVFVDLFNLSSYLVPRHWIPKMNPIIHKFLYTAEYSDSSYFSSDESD

As for `Oc1ccccc1-c1nc2c3ccccc3c3ccccc3c2[nH]1`, the IC50 was determined as 11.8 µM in assay [1] and 12.3 µM in assay [2].
As for `O=[N+]([O-])c1cc(F)c2cccnc2c1O`, the concentration for half-maximal inhibition (IC50) in assay [1] stood at 14.6 µM; in assay [2], 30.2 µM.
For `O=Cc1ccc(O)c2ncccc12`, the IC50 was 4.37 µM in assay [1] and over 100 µM in assay [2].
In the same order, the values of `CC1Oc2cc3c(-c4c(O)cc(O)c5c(O)c6c(cc45)OC(C)C(C)C6=O)c(O)cc(O)c3c(O)c2C(=O)C1C` (centres undefined) are 44.1 µM and 48.6 µM.
For `COCCn1c2nc(=O)n(-c3ccccc3)c(=O)c-2nc2ccccc21` the same measures were 23.8 µM and 33.7 µM.
As to `O=[N+]([O-])/C=C/c1cc2ccccc2[nH]1`, the IC50 in assay [1] was 2.79 µM; in assay [2], over 100 µM.
Consider `Cc1cc(=O)n2c3c(c4c(cc13)c(CN(C)C)cc(=O)n4C)OC2`, for which the IC50 came out at 27 µM in assay [1] and 17.6 µM in assay [2].
For the compound `O=[N+]([O-])c1cc([N+](=O)[O-])c2cccnc2c1O`, the IC50 in assay [1] is 11.1 µM; in assay [2], 22.7 µM.
With `O=S(=O)(/N=C/c1c(O)ccc2ccccc12)c1cccs1`, the results for the IC50 in assay [1] and in assay [2] were 1.39 µM and 11.3 µM, respectively.
For the compound `Fc1ccc2c(/C=C/c3cccnc3)c[nH]c2c1`, the figures for the IC50 in assay [1], in assay [3] and in assay [4] were 478 µM, 0.05 µM and 350 µM, respectively.
`O=C1c2ccccc2C2=C3C(O)=NN=C3CCN12`: the IC50 in assay [1] amounted to 1.72 µM; in assay [2] it was 4.35 µM.
Turning to `Nc1nonc1C(=NO)Nc1ccc(F)c(Cl)c1`, the results for the IC50 in assay [2] and in assay [5] were 3.62 µM and 3.47 µM, respectively.
Turning to `CC1=C(O)C(=O)C=C2C1=CC=C1[C@@]2(C)CC[C@@]2(C)[C@@H]3C[C@](C)(C(=O)O)CC[C@]3(C)CC[C@]12C` [CELASTROL], the IC50 in assay [1] is 8.41 µM; in assay [2], over 100 µM.
In the case of `NS(=O)(=O)NCCNc1nonc1C(=NO)Nc1ccc(F)c(Br)c1` [EPACADOSTAT], the values for the IC50 in assay [2] and in assay [5] were 3.43 µM and 2.12 µM, respectively.
